According to publication PMC5118987 (Antimicrobial Agents and Chemotherapy, 2016):

Legend:
[1] = tested on: organic cation transporter 2 (OCT2); details: read-out: IC50 inhibition of organic cation transporter 2 (OCT2); cited from earlier work
[2] = biological target: T1, HIV-1 IN 3′-processing activity (Human immunodeficiency virus type 1 group M subtype B, UniProt P04585); assay: IN 3′-processing assay (HTRF); assay type: biochemical; details: purified recombinant HIV-1 IN; mean ± SD, 5 experiments
T1 construct: Recombinant IN containing an N-terminal 6His tag was expressed in BL21(DE3) pLysS bacteria; 6His (N); made in house; host or cells: E. coli BL21(DE3) pLysS
Procedure: The strand transfer activity of IN was measured using an assay based on homogeneous time-resolved fluorescence resonance energy transfer (HTRF) ([34]) and has been previously described in detail ([35]). An HTRF-based 3′-processing assay was performed essentially as described for the IN strand transfer assay using a specially designed nonprocessed donor DNA in the absence of target DNA ([35]).

SMILES	IC50 [1]	IC50 [2]
C[C@@H]1CCO[C@H]2Cn3cc(C(=O)NCc4ccc(F)cc4F)c(=O)c(O)c3C(=O)N12 [DTG, Dolutegravir]	1930 nM	
O=C(NCc1c(F)cc(F)cc1F)c1cn2c(c(O)c1=O)C(=O)N1[C@H]3CC[C@H](C3)O[C@@H]1C2 [BIC, Bictegravir]		241 ± 51 nM
